In one experiment the target is T1, 5-lipoxygenase (Homo sapiens, UniProt P09917).
T1 construct: Blood is obtained in 50-100 ml quantities from male donors; endogenous in cells; host or cells: human whole blood (leukocytes) from male donors
T1 sequence (P09917 1-674): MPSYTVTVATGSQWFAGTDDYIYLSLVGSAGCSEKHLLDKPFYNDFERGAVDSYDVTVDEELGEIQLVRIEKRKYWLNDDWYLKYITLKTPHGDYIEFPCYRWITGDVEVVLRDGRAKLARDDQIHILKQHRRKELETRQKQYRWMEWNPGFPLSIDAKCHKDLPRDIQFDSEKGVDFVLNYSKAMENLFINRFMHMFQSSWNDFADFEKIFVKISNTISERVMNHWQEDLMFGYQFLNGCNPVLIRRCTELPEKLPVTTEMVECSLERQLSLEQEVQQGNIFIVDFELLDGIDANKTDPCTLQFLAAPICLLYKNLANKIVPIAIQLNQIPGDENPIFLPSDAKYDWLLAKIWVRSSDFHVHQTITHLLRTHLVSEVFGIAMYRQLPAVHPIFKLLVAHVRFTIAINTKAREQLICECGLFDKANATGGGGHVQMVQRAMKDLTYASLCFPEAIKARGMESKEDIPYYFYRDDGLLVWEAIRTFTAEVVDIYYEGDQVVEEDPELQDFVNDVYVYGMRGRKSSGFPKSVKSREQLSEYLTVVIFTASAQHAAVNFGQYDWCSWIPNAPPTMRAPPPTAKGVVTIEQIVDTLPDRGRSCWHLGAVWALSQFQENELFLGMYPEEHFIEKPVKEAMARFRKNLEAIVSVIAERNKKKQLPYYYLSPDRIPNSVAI
In words: inhibition of 5-lipoxygenase in human whole blood (LTB4). The experiment is classed as cell-based. The conditions noted are these: human whole blood. As to the method: The assay of this Example measures the ability of the compounds tested to inhibit 5-lipxygenase in human whole blood.
Blood is obtained in 50-100 ml quantities from male donors. White blood cell counts and differentials are made. Two ml of blood are placed in a 15 ml polypropylene test tube. Compounds are solubilized in dimethylsulfoxide and diluted 1:10 in 10% bovine serum albumin in phosphate buffered saline, pH 7.4 resulting in a final dimethylsulfoxide concentration of 0.1% in the blood. Then, compounds are added to the blood in a shaking water bath at 37° C. for 10 minutes prior to the addition of 30 μM calcium ionophore (A23187; Sigma). After ionophore administration, whole blood samples are mixed and incubated for 20 minutes at 37° C. in a shaking water bath. Incubation is terminated by placing samples in an ice bath and immediately adding ethylene glycol-bis-(β-aminoethyl ether)-N,N,N',N'-tetraacetic acid (10 mM). Samples are mixed and centrifuged at 1200×g for 15 minutes at 4° C. Preparation of samples for evaluation by RIA or ELISA is carried out by the following protocol. Plasma is removed from sample tubes, placed in 15 ml polypropylene test tubes containing 8 ml methanol, and then vortexed to precipitate protein. Samples are stored at -70° C. overnight. The next day, samples are centrifuged at 200×g for 15 minutes at 4° C. to pellet the precipitate. Samples are dried in a Savant speed vac concentrator, reconstituted to original volume with ice cold RIA or ELISA buffer, and stored at -70° C. until assayed. The assay for eicosanoids (LTB4, TxB2, and PGE2) is performed as described by the manufacturer of the [^3 H]-RIA kit or ELISA kit (LTB4 -Amersham, TxB2 and PGE2 - Caymen Chemical).
The total eicosanoid level in 2 ml of blood is calculated and reported as ng/10^6 neutrophils. Significance is determined by a one-way analysis of variance with least significant difference (LSD) comparisons to control (p≤0.05) and IC50 's (μM) are determined by regression analysis (Finney, 1978). Drug effects are expressed as percent change form control values.
Compounds tested in vitro are solubilized in dimethylsulfoxide and diluted 1:10 in 10% bovine serum albumin in phosphate buffer saline resulting in a final dimethylsulfoxide concentration of 0.1% in the blood.

Another experiment deals with T2, LTD4 (Cavia porcellus, UniProt Q2NNR5).
T2 construct: isolated guinea pig trachea; from tissue; host or cells: guinea pig tracheal rings
T2 sequence (Q2NNR5 1-340): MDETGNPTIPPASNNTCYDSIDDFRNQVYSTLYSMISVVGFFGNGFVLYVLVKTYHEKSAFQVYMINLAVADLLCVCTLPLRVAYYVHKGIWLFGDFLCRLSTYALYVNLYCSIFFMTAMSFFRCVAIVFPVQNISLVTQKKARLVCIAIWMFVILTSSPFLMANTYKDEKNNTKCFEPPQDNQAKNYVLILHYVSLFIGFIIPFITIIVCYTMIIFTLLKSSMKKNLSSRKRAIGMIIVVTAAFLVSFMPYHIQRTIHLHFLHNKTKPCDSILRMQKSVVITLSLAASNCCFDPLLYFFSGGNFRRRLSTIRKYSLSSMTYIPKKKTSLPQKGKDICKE
In words: LTD4 antagonist activity in isolated guinea pig trachea. The experiment is classed as cell-based. To be noted: 1 × 10^-5 M. As to the method: The LTD4 antagonist activity of the compounds of the invention is assessed in the in vitro isolated guinea pig trachea assay. Male Hartley guinea pigs (350-400 g) are euthanized by a blow to the head, the neck is opened and the trachea removed. The trachea is maintained in aerated physiological salt solution, cleared of connective tissue and fat and cut into rings approximately 2 mm in width (usually containing two cartilaginous segments per ring). Two pieces of silk suture are then passed through the lumen of the tracheal ring and are tied around the cartilage, one on each side of the trachealis muscle. The tracheal ring is suspended between a glass hook and a force displacement transducer in a 10 ml organ bath for measurement of isometric tension. Tissues are maintained at 37° C. in aerated ([…] /5% CO2) physiological salt solution of the following composition: […] The tracheal rings are maintained at 2 g resting tension and equilibrated for 45 minutes (with frequence washing and readjustment of resting tension). The tracheal rings are first contracted by the addition of carbachol (3×10^-6 M), to determine tissue responsiveness and establish a reference contraction. On attainment of a stable level of contraction (approximately 30 minutes), the tissues are washed several times until baseline tension has been restored and the re-equilibrated for 30 minutes. The tissues are then incubated for 45 minutes with a test antagonist (either 1×10^-6 M or 1×10^-5 M) or 10 μl of an appropriate solvent control (control, non-treated). One tissue in each group serves as the control. Twenty minutes prior to the construction of the LTD4 cumulative concentration-response curve, L-[…]×10^-2 M final bath concentration) is added to inhibit bioconversion of LTD4 to LTE4. Only one LTD4 concentration-response curve is constructed in each tissue. All responses to LTD4 in an individual tissue are measured as a percentage of the reference contraction of that tissue to carbachol. LTD4 antagonist activity is determined by comparison of the concentration response curves of LTD4 in the presence and absence of antagonist. Assessment of the relative rightward shift of the antagonist treated curve relative to the solvent (control) treated tissue is calculated as a concentration ratio (Eq. A) and used in subsequent calculations to derive an antagonist pKB value (Eqs. B and C). In the vent that the maximum response to LTD4 is depressed, the EC50 for that particular curve is determined, an "apparent" pKB reported, and the compound reported as "not-competitive." [formula] If a compound is found to be active and/or depress the maximal response to LTD4, then a range of concentrations of the test compound should be used generating multiple concentration ratios which would than be used to perform a Schild analysis, and determination of a pA2 value where appropriate.

The test system of the next experiment is carrageenan paw edema. In words: rat carrageenan paw edema assay. Format: in vivo. To be noted: Rattus norvegicus, po, 3 h, read-out: Oral ED50 (95% C.L.). The protocol: The compounds of the invention are further tested in the rat carrageenan paw edema assay to determine their ability to inhibit the acute inflammatory response.
140-180 gm male Sprague-Dawley rats, in groups of 6 animals are injected subcutaneously in the right paw with 0.1 ml of 1% carrageenan at zero time. Mercury plethysmographic readings (ml) of the paw are made at zero time and 3 hours later. Test compounds are suspended or dissolved in 0.5% methylcellulose and given perorally 1 hour prior to carrageenan administration.
The increase in paw volume (edema in ml.) produced by the carrageenan is measured. […] Unpaired Student's t-test is used to determine statistical significance.

The source of these data is patent US5208344A, “Naphthalenepropionic acid derivatives as anti-inflammatory/antiallergic agents” (American Home Products Corporation, priority 1991, dated 1993).

Where only a bound is given, the exact number is not on record here.

For `CC(NC(=O)NO)c1ccc2cc(OCc3csc(-c4ccccc4)n3)ccc2c1` (single isomer, unassigned; (-)) [Example 36, (-)-N-Hydroxy-N'-[1-[6-(2-phenyl-4-thiazolyl)methoxy-2-naphthalenyl]ethyl]urea], on 5-lipoxygenase, the inhibition (in general, the relative decrease from the control value, in per cent) at 25 µM was 86% and half-maximal inhibition (IC50) required 13500 nM. Besides, the Kb (in general, the affinity of an antagonist, worked out from how it opposes an agonist) on LTD4 is > 10000 nM.

Take `CC(=O)Oc1ccccc1C(=O)O` [Aspirin, reference compound]: in the experiment on carrageenan paw edema, the 50% effective dose (ED50) – broadly, the dose at which the effect has come halfway, by size or by number of responders – stood at 145 mg/kg.

For `C[C@H](NC(=O)NO)c1ccc2cc(OCc3nc4ccccc4s3)ccc2c1` [Example 38, S-(-)-N-[1-[6-(2-Benzothiazolylmethoxy)-2-naphthalenyl]ethyl]-N'-hydroxyurea], on 5-lipoxygenase, the inhibition at 25 µM came to 52% and the concentration for half-maximal inhibition (IC50) – broadly, the concentration at which inhibition is half-maximal – was determined as 34400 nM. For the same molecule, the Kb on LTD4 was > 6310 nM.

As to `C[C@H](C(=O)N(C)O)c1ccc2cc(OCc3csc(-c4ccccc4)n3)ccc2c1` [Example 39, S(+)-N-Hydroxy-α,N-dimethyl-[6-(2-phenyl-4-thiazolyl)methoxy]-2-naphthaleneacetamide], at 5-lipoxygenase, 25 µM produced 91% inhibition and half-maximal inhibition (IC50) required 6900 nM. This molecule also had a Kb on LTD4 of 10000 nM.

Take `C[C@H](C(=O)N(C)O)c1ccc2cc(OCc3nc4ccccc4s3)ccc2c1` [Example 41, S-(+)-N-Hydroxy-α,N-dimethyl-6-(2-benzothiazolylmethoxy)-2-naphthaleneacetamideone tenth hydrate]: on 5-lipoxygenase, the inhibition at 25 µM was 83% and the half-maximal inhibitory concentration (IC50) was determined as 11400 nM. This molecule showed a Kb on LTD4 of 398 nM.

At 5-lipoxygenase, `C[C@H](C(=O)N(C)O)c1ccc2cc(OCc3ccccn3)ccc2c1` [Example 44, S-(+)-N-Hydroxy-α, N-diomethyl-6-(2-pyridinylmethoxy)-2-naphthaleneacetamide] gave an inhibition at 25 µM of 86% and an IC50 of 2000 nM. The molecule further showed a Kb at LTD4 of 1580 nM.

`C[C@H](C(=O)N(C)O)c1ccc2cc(OCc3nc4ccccc4n3C)ccc2c1` [Example 45, S-(+)-N-Hydroxy-α,N-dimethyl-6-[(1-methyl-1H-benzimidazol-2-yl)methoxy]-2-naphthaleneacetamide]: on 5-lipoxygenase, testing at 25 µM gave an inhibition of 75% and the IC50 was 1100 nM. In addition, the Kb on LTD4 was 200 nM.

Regarding `C[C@H](C(=O)N(C)O)c1ccc2cc(OCc3nc4ccccc4o3)ccc2c1` [Example 47, S-N-Hydroxy-α, N-dimethyl-6-(2-benzoxazolylmethoxy)-2-naphthaleneacetamide], at 5-lipoxygenase, at 25 µM the inhibition was 84% and 2300 nM corresponded to half-maximal inhibition (IC50). Besides, the Kb on LTD4 was 501 nM.
